Assay results reported in the NIST ThermoML archive (doi:10.1021/je900283v).
± gives the expanded uncertainty stated by the source.

What was measured:
[1] = Crystal; DTA
[2] = Molar enthalpy of transition or fusion; details: Crystal; DSC

CC[C@@]1(O)C(=O)OCc2c1cc1n(c2=O)Cc2cc3cc(O)ccc3nc2-1
Normal melting temperature [1]: 194.00 ± 1 °C
Molar enthalpy of transition or fusion [2]: 12.8 ± 0.335 kcal/mol
